# Values of other authors in PMC9499927, “Peptidomimetics designed to bind to RAS effector domain are promising cancer therapeutic compounds” (Scientific Reports, 2022).
# Tests used:
# [1] = tested on: KRAS-mutant colon and pancreatic cancer mouse models
# Excerpt: (§1) The unclear results obtained using these experimental approaches has led the scientific community to refocus on the search for direct RAS inhibitors. With this objective, two strategies are currently being followed: the first involves searching for molecules that block the interaction with non-effector RAS proteins that bind to the HVR and/or the allosteric lobe and which modulate RAS activity; and the second is looking for drugs that inhibit the binding of RAS with its effectors[20],[21]. In this context, Rigosertib, a compound that binds to the Ras-binding domain of multiple RAS effector ...
# [2] = tested on: Ras-binding domain of multiple RAS effectors
# Excerpt: as §1
# [3] = tested on: patients with previously untreated metastatic pancreatic cancer; settings: randomized phase 2/3 trial
# Excerpt: as §1
compound,measurement,setting,value
COc1cc(OC)c(/C=C/S(=O)(=O)Cc2ccc(OC)c(NCC(=O)O)c2)c(OC)c1 [Rigosertib],Tumour growth inhibition,[1],proven to inhibit tumour growth
same,Binding,[2],binds to the Ras-binding domain of multiple RAS effectors
same,Clinical benefit of addition to gemcitabine,[3],no benefit
